# Tests used:
# [1] = system: dallisgrass; experiment: Post-emergence field plot test, % damage to natural dallisgrass infestation; type: in vivo, dallisgrass (Paspalum dilatatum); details: with non-ionic surfactant, rates g/ha foram 28.78, TCM 15, halo 69.9; for Trial 1 (16 WAT) % damage: 16 weeks after treatment; for Trial 2 (42 DAA) % damage: 42 days after application; for Trial 3 (48 DAA) % damage: 48 days after application
# Excerpt: Plots approximately 2-4.6 m^2 in size are contain a natural infestion of the weed dallisgrass. Using a CO2 propelled backpack sprayer, thiencarbazone-methyl (TCM), foramsulfuron (foram), and halosulfuron-methyl (halo) are applied on their own and in a combination, by post-emergence method, to the dallisgrass, at the application rates specified. The application rates for each compound and combination are equivalent to each other. All treatments included a non-ionic surfactant. After 42 days, 48 days, and 16 weeks after treatment, the degree of damage to the plants is rated in % damage in comparison to the development of the untreated control.
# (§1) The FIGURES denote: • 0%=no effect (like untreated control) • 100%=total destruction.
# [2] = system: Tall Fescue; experiment: Glasshouse post-emergence test, % damage to Tall Fescue; type: in vivo, tall fescue (Schedonorus phoenix/Festuca arundinacea); details: NIS 0.25 % V/V
# Excerpt: Glasshouse plots approximately 1.1 m^2 in size are planted with the weed Tall Fescue. Using a 1 nozzle motorized track sprayer, thiencarbazone-methyl (BYH18636), foramsulfuron (Revolver●), and halosulfuron-methyl (Sedgehammer●) are applied on their own and in combination with each other (a combination of thiencarbazone-methyl, foramsulfuron, and halosulfuron-methyl is SP 102000025052), by post-emergence method, to the weed Tall Fescue, at the application rates specified. The application rates for each compound and combination are equivalent to each other.
# After 14 and 27 days after treatment, the degree of damage to the plants is rated in % damage in comparison to the development of the untreated control.
# as §1
# [3] = higher rates: TCM 22.2, foram 44.37, halo 69 G A/HA (blend 135.6 G A/HA, 3.2 OZ/A)
# [4] = lower rates: TCM 14.58, foram 29.12, halo 45.3 G A/HA (blend 89 G A/HA, 2.1 OZ/A)
SMILES,Trial 1 (16 WAT) % damage [1],Trial 2 (42 DAA) % damage [1],Trial 3 (48 DAA) % damage [1],"0 DAA % damage [2, 3]","0 DAA % damage [2, 4]","14 DAA % damage [2, 3]","14 DAA % damage [2, 4]","27 DAA % damage [2, 3]","27 DAA % damage [2, 4]"
COc1cc(OC)nc(NC(=O)NS(=O)(=O)c2cc(NC=O)ccc2C(=O)N(C)C)n1 [foramsulfuron],31.5%,76.7%,35%,,,,,,
COC(=O)c1c(Cl)nn(C)c1S(=O)(=O)NC(=O)Nc1nc(OC)cc(OC)n1 [halosulfuron-methyl],0%,0%,−9%,,,,,,
COC(=O)c1csc(C)c1S(=O)(=O)NC(=O)n1nc(OC)n(C)c1=O [thiencarbazone-methyl],85.25%,65%,51%,0%,0%,42.5%,26.3%,75%,52.5%

# — patent US10231456B2, “Methods and compositions for controlling weed infestation and improving grass quality” (BAYER CROPSCIENCE LP, priority 2012, dated 2019)
